Measurements as given in patent US11970497B2, “Tricyclic AKR1C3 dependent KARS inhibitors” (Novartis AG, priority 2019, dated 2024).

Tests used:
Test in all cases: Expanded lung cancer cell line proliferation assay
Assay type in all cases: cell-based
[1] = system: Calu-6; settings: Homo sapiens; Calu-6, 72 h, average of PrestoBlue and Cell Titer Glo; AKR1C3 32.5 TPM; read-out: Absolute Qualified AC50
Source text: (§1) Cellular Proliferation Assay to Assess Compound Activity in an Expanded Panel of 57 NRF2 Pathway Mutant and Wild Type Lung Cancer Cell Lines.
(§2) Both the PrestoBlue Cell Viability Reagent and Cell Titer Glo were multiplexed together as the final assay readout. PrestoBlue is a cell permeable resazurin-based solution that utilizes the reducing power of living cells to quantitatively measure their proliferation. Cell Titer Glo measures the amount of ATP present, an indicator of metabolically active cells.
(§3) Expanded Lung Cancer Cell Line Proliferation Assay Outline, Analysis and Profiling Results
(§4) Cells were seeded into 384 well assay plates (Greiner Bio-One, Catalog #781080) using the Thermo Scientific Matrix WellMate microplate dispenser and Thermo Scientific Matrix WellMate small bore disposable tubing cartridges (Catalog #201-30002) in 30 μl of growth media (RPMI-1640 supplemented with 10% fetal bovine serum and 1% penicillin/streptomycin) per well (1000 to 2000 cells/well depending on doubling time). Following cell plating, assay plates were placed into tissue culture incubator at 37° C./5% CO2 overnight. The next day one assay plate for each cell line was used for a Day 0 Cell Titer Glo and PrestoBlue readout. 3 μl of PrestoBlue Cell Viability Reagent (Thermo Scientific, Catalog #A13262) was added to each well and then assay plates were incubated at 37° C./5% CO2 for 30 minutes prior to fluorescence readout on the EnVision 2105 multimode plate reader (Perkin Elmer). Following the PrestoBlue readout 18 μl of Cell Titer Glo (Promega, Catalog #G7572) was then added to each well, allowing plates to incubate at room temperature for 10 minutes prior to luminescence readout on the EnVision. Compound was then added to the remaining assay plates (each cell line run in triplicates) using the Labcyte Inc Echo 555 acoustic liquid handler. Compounds were arrayed into a Labcyte Inc Echo qualified 384 well LDV microplate (Cat #LP-0200-GNF10). Compounds were serially diluted 1:3.16 to generate an 8 point dose response for a final top concentration of 1 μM. DMSO (0.3%) was used as the neutral control (NC) and MG132 (30 μM) was used as the active control (AC). 90 nl of compounds were added to 30 μl of cells using the Labcyte Inc Echo 555 acoustic liquid handler for a final DMSO assay concentration of 0.3%. Following compound addition, assay plates were spun down in a tabletop centrifuge at 500 rpm for 1 minute and then placed into tissue culture incubator at 37° C./5% CO2 for 72 h. Following the 72 h incubation, all assay plates were readout using PrestoBlue and Cell Titer Glo using the same conditions previously described for the Day 0 readout. The Day 0 readout (untreated cells) was used to compare to the 72 h DMSO treated samples on each assay plate as a way of tracking each cell line's fold growth. NC1 control based normalization was used for data analysis in Helios, which incorporates the DMSO neutral control (NC) and MG132 active control (AC) for generating dose response curves that are then used to calculate the Absolute Qualified AC50 calls for each compound and cell line.
(§5) NC1 normalization calculation model: NC1: xn=±(x−NC)/(AC−NC)
(§6) +/− is set by the inhibition type parameter setting where NC and AC are averages (mean or median) over the corresponding NC and AC well values. The Qualified Absolute AC50 values for Compound 36 and Compound 40 are listed in the table below and are represented as the average activity in both the PrestoBlue and Cell Titer Glo assay readouts.
(§7) Absolute Qualified AC50 Values Listed Below are a Representation of Each Compounds' Average Activity in Both the PrestoBlue and Cell Titer Glo Assay Readouts.

[2] = system: HCC-44; settings: Homo sapiens, HCC44; HCC-44, 72 h, average of PrestoBlue and Cell Titer Glo; AKR1C3 134.3 TPM; read-out: Absolute Qualified AC50
Source text: as §1, §2, §3, §4, §5, §6, §7

[3] = system: LCLC-97TM1; settings: Homo sapiens; LCLC-97TM1, 72 h, average of PrestoBlue and Cell Titer Glo; AKR1C3 1.9 TPM; read-out: Absolute Qualified AC50
Source text: as §1, §2, §3, §4, §5, §6, §7

[4] = system: LXF-289; settings: Homo sapiens; LXF-289, 72 h, average of PrestoBlue and Cell Titer Glo; AKR1C3 358.4 TPM; read-out: Absolute Qualified AC50
Source text: as §1, §2, §3, §4, §5, §6, §7

[5] = system: NCI-H1437; settings: Homo sapiens; NCI-H1437, 72 h, average of PrestoBlue and Cell Titer Glo; AKR1C3 2720.8 TPM; read-out: Absolute Qualified AC50
Source text: as §1, §2, §3, §4, §5, §6, §7

[6] = system: NCI-H1581; settings: Homo sapiens; NCI-H1581, 72 h, average of PrestoBlue and Cell Titer Glo; AKR1C3 1.9 TPM; read-out: Absolute Qualified AC50
Source text: as §1, §2, §3, §4, §5, §6, §7

[7] = system: NCI-H1703; settings: Homo sapiens; NCI-H1703, 72 h, average of PrestoBlue and Cell Titer Glo; AKR1C3 3.2 TPM; read-out: Absolute Qualified AC50
Source text: as §1, §2, §3, §4, §5, §6, §7

[8] = system: NCI-H2023; settings: NCI-H2023, 72 h, average of PrestoBlue and Cell Titer Glo; AKR1C3 1424.8 TPM; read-out: Absolute Qualified AC50
Source text: as §1, §2, §3, §4, §5, §6, §7

[9] = system: NCI-H2122; settings: Homo sapiens; NCI-H2122, 72 h, average of PrestoBlue and Cell Titer Glo; AKR1C3 1507.5 TPM; read-out: Absolute Qualified AC50
Source text: as §1, §2, §3, §4, §5, §6, §7

[10] = system: NCI-H2347; settings: Homo sapiens; NCI-H2347, 72 h, average of PrestoBlue and Cell Titer Glo; AKR1C3 8.9 TPM; read-out: Absolute Qualified AC50
Source text: as §1, §2, §3, §4, §5, §6, §7

[11] = system: NCI-H23; settings: Homo sapiens; NCI-H23, 72 h, average of PrestoBlue and Cell Titer Glo; AKR1C3 1 TPM; read-out: Absolute Qualified AC50
Source text: as §1, §2, §3, §4, §5, §6, §7

[12] = system: NCI-H2405; settings: Homo sapiens; NCI-H2405, 72 h, average of PrestoBlue and Cell Titer Glo; AKR1C3 189.1 TPM; read-out: Absolute Qualified AC50
Source text: as §1, §2, §3, §4, §5, §6, §7

[13] = system: NCI-H358; settings: Homo sapiens; NCI-H358, 72 h, average of PrestoBlue and Cell Titer Glo; AKR1C3 5.6 TPM; read-out: Absolute Qualified AC50
Source text: as §1, §2, §3, §4, §5, §6, §7

[14] = system: VMRC-LCD; settings: 72 h, average of PrestoBlue and Cell Titer Glo, AKR1C3 expression: no data available, read-out: Absolute Qualified AC50
Source text: as §1, §2, §3, §4, §5, §6, §7

Row | Structure (SMILES) | AC50 [1] [nM] | AC50 [2] [nM] | AC50 [3] [nM] | AC50 [4] [nM] | AC50 [5] [nM] | AC50 [6] [nM] | AC50 [7] [nM] | AC50 [8] [nM] | AC50 [9] [nM] | AC50 [10] [nM] | AC50 [11] [nM] | AC50 [12] [nM] | AC50 [13] [nM] | AC50 [14] [nM]
1 | CN1c2ccc(F)cc2C(=O)CC12CCN(C(=O)NCc1ccc(F)c(NCCO)c1)CC2 [Example 36, 6′-fluoro-N-(4-fluoro-3-((2-hydroxyethyl)amino)benzyl)-1′-methyl-4′-oxo-3′,4′-dihydro-1′H-spiro[piperidine-4,2′-quinoline]-1-carboxamide] | > 1000 | 705 | > 1000 | 781 | 257 | > 1000 | > 1000 | 347 | 258 | > 1000 | > 1000 | 994 | > 1000 | 474
2 | O=C1CC2(CCN(C(=O)NCc3ccc(F)cc3)CC2)Nc2ccc(F)cc21 [Example 40] | > 1000 | 440 | > 1000 | 835 | 68 | > 1000 | > 1000 | 63 | 56 | > 1000 | > 1000 | 474 | > 1000 | 330
